Where two headings read alike, the source gives them in different places.
What was measured:
hκ-OR = conditions: cited from earlier work
mμ-OR mutants = format: cell-based, mouse; conditions: mμ-OR mutations at D^3.32, Y^3.33, V^5.43, I^6.51 (Fig. 5J)
mδ-OR mutants = format: cell-based, mouse
[1] = system: WT mδ-OR, mδ-OR-Q190^ECL2H, mδ-OR-Q201^ECL2H, mδ-OR-S45^N-terminalH, mδ-OR-E112^ECL1H; format: cell-based, mouse
μ-OR over δ-OR = conditions: cited from earlier work
δ/μ^N-terminal Chimera = format: cell-based, mouse
mδ-OR and its variants = experiment: Maximal K+ current density evoked by saturating full agonist, mδ-OR variants; format: cell-based, mouse
δ-OR = conditions: cited from earlier work
[2] = molecular target: mδ-OR-3M-PSA(28–30)-LGG (mouse) (UniProt P32300); experiment: MST
mδ-OR-R292^ECL3E (mouse) = mδ-OR-R292^ECL3E (mouse) (UniProt P32300); experiment: MST
[3] = molecular target: mouse δ-opioid receptor, wild type (mouse) (UniProt P32300); experiment: MST
mδ-OR-R291^ECL3A (mouse) = mδ-OR-R291^ECL3A (mouse) (UniProt P32300); experiment: MST
mδ-OR-K108^2.63N (mouse) = mδ-OR-K108^2.63N (mouse) (UniProt P32300); experiment: MST
[4] = molecular target: mδ-OR-K108^2.63N-L125^3.29I-R291^ECL3A (mouse) (UniProt P32300); experiment: MST

Compound: CC(C)[C@@H](CN1CC[C@@](C)(c2cccc(O)c2)[C@@H](C)C1)NC(=O)[C@H]1Cc2ccc(O)cc2CN1 [JDTic]
- selectivity for hκ-OR (hκ-OR): more than 1000 fold

Compound: CN1CC[C@]23c4c5ccc(O)c4O[C@H]2[C@@H](O)C=C[C@H]3[C@H]1C5 [morphine]
- agonist-induced activation of mutants (mμ-OR mutants): significant reductions
- change in potency for mδ-OR (mδ-OR mutants; mutations of K108^2.63 to Ala or Asn): increased the potency
- agonist-induced activation of mutants (mδ-OR mutants; mδ-OR mutations at D^3.32, Y^3.33, V^5.43, I^6.51 (Fig. 5H)): significant reductions
- effect of ZnCl2 on agonist activation (control) ([1]; 1 mmol/L ZnCl2, WT mδ-OR, mδ-OR-Q190^ECL2H, mδ-OR-Q201^ECL2H): did not alter
- effect of ZnCl2 on agonist activation (control) ([1]; 3 mmol/L ZnCl2, mδ-OR-S45^N-terminalH, mδ-OR-E112^ECL1H): did not alter

Compound: CC[C@H](C)[C@H](NC(=O)[C@H](C)NC(=O)[C@H](CC(N)=O)NC(=O)[C@H](CCCCN)NC(=O)[C@H](Cc1ccccc1)NC(=O)[C@H](CC(C)C)NC(=O)[C@@H](NC(=O)[C@@H](NC(=O)[C@H](CC(C)C)NC(=O)[C@@H]1CCCN1C(=O)[C@@H](NC(=O)[C@H](CCC(N)=O)NC(=O)[C@H](CO)NC(=O)[C@H](CCCCN)NC(=O)[C@H](CCC(=O)O)NC(=O)[C@H](CO)NC(=O)[C@@H](NC(=O)[C@H](CCSC)NC(=O)[C@H](Cc1ccccc1)NC(=O)CNC(=O)CNC(=O)[C@@H](N)Cc1ccc(O)cc1)[C@@H](C)O)[C@@H](C)O)C(C)C)[C@@H](C)O)C(=O)N[C@H](C(=O)N[C@@H](CCCCN)C(=O)N[C@@H](CC(N)=O)C(=O)N[C@@H](C)C(=O)N[C@@H](Cc1ccc(O)cc1)C(=O)N[C@@H](CCCCN)C(=O)N[C@@H](CCCCN)C(=O)NCC(=O)N[C@@H](CCC(=O)O)C(=O)O)[C@@H](C)CC [β-endorphin]
- preference between μ-OR and δ-OR (μ-OR over δ-OR): no discernible preference
- EC50 (δ/μ^N-terminal Chimera): 10.3 ± 0.9 nM

Compound: Leu-enkephalin
- maximum currents vs wild-type receptor (mδ-OR and its variants): statistically indistinguishable from wild-type receptor

Compound: deltorphin
- selectivity for δ-OR (δ-OR): more than 1000 fold

Compound: endomorphin-1 (peptide)
- Kd [2]: 1.03 nM
- Kd (mδ-OR-R292^ECL3E (mouse)): 408 nM
- Kd [3]: 2940 nM
- Kd (mδ-OR-R291^ECL3A (mouse)): 344 nM
- Kd (mδ-OR-K108^2.63N (mouse)): 299 nM
- Kd [4]: 9.42 nM

Compound: endomorphin-2 [EM-2]
- μ-OR selectivity over δ-OR (μ-OR over δ-OR): > 1500 fold
